Consider 34 compounds from the METLIN SMRT retention time set (Domingo-Almenara et al. 2019).

The series in a line: gradient 5% acetonitrile 3 min, to 50% in 2 min, to 85% in 15 min, held 3 min, 100 µL/min. The settings on record: column: Zorbax Extend-C18 2.1 x 50 mm; eluents: water / acetonitrile, 0.1% formic acid. The procedure, abridged:
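Pure standards were analyzed in mixtures of ~100 molecules using HPLC coupled to a quadrupole time-of-flight mass spectrometer, in both positive and negative ionization mode. Separation used a Zorbax Extend-C18 column (2.1 × 50 mm, 1.8 μm) at 100 μL/min, with water and acetonitrile each containing 0.1% formic acid. Dead and dwell volumes were 40 μL and 900 μL, and data were collected over 3 months. Retention time was read from computationally picked adduct peaks, each inspected manually.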
`CCCNc1cc(N2CCCC(CCC(=O)NC(C)C)C2)ncn1` (centres undefined) returned an RP-LC retention time of 616 s.

In the case of `Cn1nc(C2CCN(C(=O)C3CCC3)CC2)c2c1CCOC2`, the RP-LC retention time was 659 s.

For the compound `O=C(Cc1ccc(F)cc1)N1CCN(CC(O)c2cccs2)CC1` (centres undefined), the RP-LC retention time came out at 569 s.

In the case of `COc1cc(OC)c2c(C)c(CC(=O)N3CCC(C(N)=O)CC3)c(=O)oc2c1`, the RP-LC retention time was found to be 649 s.

Take `CCCCOc1nc2c(c(=O)n(C)c(=O)n2C)n1C`: the RP-LC retention time amounted to 874 s.

On to `Cc1ccc(Nc2c(-c3ccccc3O)nc3ccc(Br)cn23)cc1`, for which the RP-LC retention time was 1070 s.

For the compound `CC(O)c1nc2c(c(=O)n(C)c(=O)n2C)n1C` (centres undefined), the RP-LC retention time amounted to 622 s.

Consider `Cc1nnc(N2CCCC(C(=O)NCc3cccs3)C2)c2nn(-c3ccccc3)c(C)c12` (centres undefined), for which the RP-LC retention time stood at 702 s.

Turning to `O=C(CN1CCN(Cc2ccc(F)cc2)C1=O)NCc1ccc(OC(F)(F)F)cc1`, the RP-LC retention time amounted to 901 s.

`COc1ccccc1N1CCN(CCNC(=O)Nc2ccc3c(c2)OCO3)CC1` gave an RP-LC retention time of 569 s.

Turning to `CCN(Cc1cc(Nc2nc(C)cn3c(-c4cn[nH]c4)cnc23)sn1)C(C)(C)CO`, the RP-LC retention time stood at 682 s.

As to `CC(=O)Oc1ccc(C2=NN(C(C)=O)C(c3ccc(F)cc3)O2)c(OC(C)=O)c1` (centres undefined), the RP-LC retention time was 936 s.

In turn, `CCNC(=O)c1nc(C(=O)NCc2ccc(F)cc2)cs1` had an RP-LC retention time of 751 s.

Regarding `O=C(Nc1nc(-c2cccnc2)cs1)c1csc(-n2cccc2)n1`, the RP-LC retention time amounted to 667 s.

With `CNC(=O)C1CCCN1C(=O)Nc1ccc(C)cc1` (centres undefined), the RP-LC retention time was determined as 640 s.

`Cc1cc(NS(=O)(=O)c2cc3n(c2)CCN(C)C3=O)ccc1F` displayed an RP-LC retention time of 698 s.

For the compound `Cc1cc(Cl)ccc1S(=O)(=O)Nc1ccc(Cn2cncn2)cc1`, the RP-LC retention time is 782 s.

`O=C(NCc1cccs1)c1ccc(-n2cccn2)nn1` had an RP-LC retention time of 737 s.

As for `Cc1ccc(N2CCN(S(=O)(=O)c3cc(-c4nnc(C5CCC5)o4)co3)CC2)cc1`, the RP-LC retention time was 1110 s.

The compound `COc1ccc(-c2noc(-c3cccn(CC(=O)Nc4cccc(SC)c4)c3=O)n2)cc1OC` had an RP-LC retention time of 853 s.

With `Cc1cccc(Cn2c(C)c(CNCCc3ccco3)c(C(=O)O)c2C)c1`, the RP-LC retention time is 720 s.

`O=C(NCCc1csc(-c2ccccc2)n1)C1CCN(S(=O)(=O)c2cccc(Cl)c2)CC1`: the RP-LC retention time is 982 s.

`CN(C1CCc2nn(CC3CC3)c(=O)n2CC1)S(=O)(=O)Cc1ccccc1` (centres undefined): the RP-LC retention time is 747 s.

Compound `COc1cc(C2C(C(=O)N3CCOCC3)=C(C)NC3=C2C(=O)CCC3)ccc1OC(C)=O` (centres undefined) registered an RP-LC retention time of 622 s.

Take `CN(C)c1cnc(-n2cc(NC(=O)c3ccc(C(F)(F)F)cc3)cn2)nc1`: the RP-LC retention time turned out to be 833 s.

Take `Cc1ccc(NS(=O)(=O)c2cc(-c3[nH]ncc3C(=O)N3CCCCC3)oc2C)cc1`: the RP-LC retention time is 773 s.

On to `COc1ccc(NC(=O)c2sc3[nH]c(=O)c(C(=O)O)cc3c2N)c(OC)c1`, for which the RP-LC retention time worked out at 681 s.

Turning to `CCCCN1CCN(C(=O)CN2CCN(Cc3ccc(F)cc3Cl)C2=O)CC1`, the RP-LC retention time is 641 s.

Consider `CCCN1C(=O)Cc2ccccc2C1C(=O)NCc1cccc(Br)c1` (centres undefined), for which the RP-LC retention time worked out at 854 s.

In turn, `CN1Cc2ccccc2-n2ccnc2C12CCN(C(=O)c1ccc(F)c(F)c1)CC2` had an RP-LC retention time of 619 s.

For `Cc1cccc(C(=O)Nc2cc(-c3cccs3)no2)c1`, the RP-LC retention time is 1000 s.

`Cc1cc(OCC(=O)Nc2ccc(C#N)cc2)nc(-c2ccc(F)cc2)n1` gave an RP-LC retention time of 976 s.

In the case of `CSc1ccccc1CN1CCC(CNC(=O)C(=O)NCC(F)(F)F)CC1`, the RP-LC retention time is 574 s.

Turning to `Cc1nc2nc(-c3ccc(C(C)(C)C)cc3)nn2c(C)c1CC(=O)N1CCCCC1`, the RP-LC retention time turned out to be 1040 s.
